One experiment concerns the target T1, 5HT-Transporter (Homo sapiens, UniProt P31645).
T1 construct: Human platelet membranes (Oceanix Biosciences Corporation, Hanover, Md., USA) were thawed; tissue Oceanix Biosciences Corporation, Hanover, Md., USA; host or cells: human platelet membranes
Description: Binding experiment for the 5HT-transporter ([3H]paroxetine, human platelet membranes). To be noted: [3H]paroxetine 0.5 nM; for IC50: read-out: h-5HTT pIC50 (converted). A digest of the protocol: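 Competition binding of [3H]paroxetine to human platelet membranes in Tris-HCl 50 mM, 120 mM NaCl, 5 mM KCl, with filtration and scintillation counting.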

The next experiment deals with T2, hα2A receptor (Homo sapiens, UniProt P08913).
T2 construct: expressed in transfected cells; host or cells: CHO cells, stably transfected; membrane preparation
T2 sequence (P08913 1-465): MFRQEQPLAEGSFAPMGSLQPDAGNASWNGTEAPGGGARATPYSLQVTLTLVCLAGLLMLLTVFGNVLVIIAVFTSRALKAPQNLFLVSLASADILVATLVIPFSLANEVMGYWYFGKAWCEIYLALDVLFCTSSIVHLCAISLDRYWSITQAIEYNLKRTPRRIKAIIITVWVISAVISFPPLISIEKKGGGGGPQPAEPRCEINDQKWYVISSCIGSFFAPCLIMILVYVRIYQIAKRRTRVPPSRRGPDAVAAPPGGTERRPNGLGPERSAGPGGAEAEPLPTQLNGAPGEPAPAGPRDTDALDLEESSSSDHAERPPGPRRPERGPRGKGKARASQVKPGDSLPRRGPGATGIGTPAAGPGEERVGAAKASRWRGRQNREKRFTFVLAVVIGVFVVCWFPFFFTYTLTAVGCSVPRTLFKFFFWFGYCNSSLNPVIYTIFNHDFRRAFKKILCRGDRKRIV
Put plainly: Radioligand binding experiment for α2A-adrenoceptor ([3H]raulwolscine, CHO cell membranes). As to conditions: [3H]raulwolscine binding; for IC50: read-out: h-α2A pIC50 (converted).

The target of another experiment is T3, hα2C receptor (Homo sapiens, UniProt P18825).
T3 construct: expressed in transfected cells; host or cells: CHO cells, stably transfected; membrane preparation
T3 sequence (P18825 1-462): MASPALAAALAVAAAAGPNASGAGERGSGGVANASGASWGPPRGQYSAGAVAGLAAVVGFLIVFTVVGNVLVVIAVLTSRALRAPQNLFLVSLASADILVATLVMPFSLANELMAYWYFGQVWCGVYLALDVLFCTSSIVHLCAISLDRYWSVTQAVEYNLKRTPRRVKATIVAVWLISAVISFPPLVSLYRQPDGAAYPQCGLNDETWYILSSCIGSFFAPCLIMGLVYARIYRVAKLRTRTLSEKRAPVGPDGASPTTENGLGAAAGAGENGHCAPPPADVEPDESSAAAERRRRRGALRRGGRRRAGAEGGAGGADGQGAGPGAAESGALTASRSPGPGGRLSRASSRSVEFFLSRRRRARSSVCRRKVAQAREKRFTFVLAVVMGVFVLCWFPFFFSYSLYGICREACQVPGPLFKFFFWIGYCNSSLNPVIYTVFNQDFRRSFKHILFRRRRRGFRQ
Put plainly: Radioligand binding experiment for α2C-adrenoceptor ([3H]raulwolscine, CHO cell membranes). As to conditions: [3H]raulwolscine binding; for IC50: read-out: h-α2C pIC50 (converted).

T1 sequence (P31645 whole entry): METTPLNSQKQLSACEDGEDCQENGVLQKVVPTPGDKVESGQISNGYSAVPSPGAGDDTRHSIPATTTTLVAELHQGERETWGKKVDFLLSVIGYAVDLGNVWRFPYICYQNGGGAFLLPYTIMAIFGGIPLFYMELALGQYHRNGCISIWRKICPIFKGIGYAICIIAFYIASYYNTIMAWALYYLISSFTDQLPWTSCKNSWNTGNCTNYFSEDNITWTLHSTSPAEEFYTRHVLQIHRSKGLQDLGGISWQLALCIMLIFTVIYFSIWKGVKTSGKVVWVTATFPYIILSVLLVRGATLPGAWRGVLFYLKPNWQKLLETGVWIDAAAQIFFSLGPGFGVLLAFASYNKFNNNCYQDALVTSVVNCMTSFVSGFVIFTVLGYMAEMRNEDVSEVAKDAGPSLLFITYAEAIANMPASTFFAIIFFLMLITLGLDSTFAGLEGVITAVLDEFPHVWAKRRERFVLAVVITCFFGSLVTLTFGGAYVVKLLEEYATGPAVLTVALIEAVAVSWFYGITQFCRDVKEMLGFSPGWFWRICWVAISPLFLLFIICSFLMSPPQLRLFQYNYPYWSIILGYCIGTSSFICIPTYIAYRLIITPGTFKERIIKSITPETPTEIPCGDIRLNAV

Turning to `C/C(=C\c1ccccc1)CN1CCC(Nc2nccn(-c3cccc(CNCCN4CCOCC4)c3)c2=O)CC1` [1-149], on 5HT-Transporter, the “h-5HTT pIC50” value is given as 5.5. For the same compound, the “h-α2A pIC50” value on hα2A receptor was determined as 7.6. Further, the “h-α2C pIC50” value on hα2C receptor turned out to be 8.4.
Consider `CC(=O)CN(C)CCCn1ccnc(NC2CCN(C/C(C)=C/c3ccccc3)CC2)c1=O` [1-38], for which the IC50 at 5HT-Transporter is 7940 nM; at hα2A receptor, 316 nM; on hα2C receptor, 12.6 nM.
The like results for `C/C(=C\c1ccccc1)CN1CCN(c2nccn(Cc3ccc(Cl)s3)c2=O)CC1` [13-2] were, in that order, 3980 nM, 79.4 nM and 39.8 nM.
The like results for `C/C(=C\c1ccccc1)CN1CCC(Nc2nccn(CCN3CCCCC3)c2=O)CC1` [2-3] were, in that order, 3160 nM, 63.1 nM and 6.31 nM.
As for `C/C(=C\c1ccccc1)CN1CCC(Nc2nccn(CCCN(C(=O)Nc3ccccc3)c3ccccc3)c2=O)CC1` [1-122], the IC50 at 5HT-Transporter was 200 nM; at hα2A receptor, 100 nM; on hα2C receptor, 7.94 nM.
The like results for `C/C(=C\c1ccccc1)CN1CCC(Nc2nccn(Cc3ccc(F)cc3)c2=O)CC1` [5-13] were, in that order, 1260 nM, 158 nM and 63.1 nM.
The like results for `C/C(=C\c1ccccc1)CN1CCC(Nc2nccn(-c3cccc(CNCC4CCCO4)c3)c2=O)CC1` (stereo not drawn) [1-145] were, in that order, 794 nM, 20 nM and 1.26 nM.
Turning to `C/C(=C\c1ccccc1)CN1CCC(Nc2nccn(CC(=O)N(CCN3CCCC3C)Cc3ccc(F)cc3)c2=O)CC1` (stereo not drawn) [1-138], the IC50 on 5HT-Transporter was 1260 nM; at hα2A receptor, 7.94 nM; at hα2C receptor it was 0.794 nM.
`C/C(=C\c1ccccc1)CN1CCC(Nc2nccn(-c3cccc(NC(=O)CC4CCCC4)c3)c2=O)CC1` [1-34]: the results for the IC50 on 5HT-Transporter, on hα2A receptor and on hα2C receptor were 631 nM, 63.1 nM and 20 nM, respectively.
The like results for `C/C(=C\c1ccccc1)CN1CCC(Nc2nccn(Cc3ccc4ccccc4c3)c2=O)CC1` [5-35] were, in that order, 398 nM, 63.1 nM and 39.8 nM.
The like results for `C/C(=C\c1ccccc1)CN1CCC(Nc2nccn(Cc3ccc(S(C)(=O)=O)cc3)c2=O)CC1` [5-26] were, in that order, 1260 nM, 126 nM and 25.1 nM.
On to `C/C(=C\c1ccccc1)CN1CCC(Nc2nccn(CC(=O)C(C)(C)C)c2=O)CC1` [7-9], for which the IC50 at 5HT-Transporter was 5010 nM; on hα2A receptor, 79.4 nM; at hα2C receptor, 7.94 nM.
The like results for `O=c1c(NC2CCN(C/C=C/c3ccccc3)CC2)nccn1Cc1ccc2ccccc2n1` [16-21] were, in that order, 1000 nM, 501 nM and 126 nM.
Turning to `C/C(=C\c1ccccc1)CN1CCC(Nc2nccn(Cc3cccc(Cl)c3)c2=O)CC1` [5-18], the IC50 on 5HT-Transporter is 631 nM; at hα2A receptor it was 126 nM; at hα2C receptor it was 39.8 nM.
Consider `C/C(=C\c1ccccc1)CN1CCC(Nc2nccn(-c3cccc(CN4CCCCC4)c3)c2=O)CC1` [2-9], for which the results for the IC50 at 5HT-Transporter, at hα2A receptor and at hα2C receptor were 200 nM, 0.631 nM and 0.2 nM, respectively.
In the case of `C/C(=C\c1ccccc1)CN1CCC(Nc2nccn(CC#CCN3C(=O)c4ccccc4C3=O)c2=O)CC1` [2-54], the IC50 was 50.1 nM on 5HT-Transporter, 126 nM at hα2A receptor and 6.31 nM on hα2C receptor.
`COCCNC(=O)c1ccc(-n2ccnc(NC3CCN(C/C(C)=C/c4ccccc4)CC3)c2=O)cc1` [1-22]: the IC50 was 631 nM on 5HT-Transporter, 100 nM on hα2A receptor and 12.6 nM at hα2C receptor.
The like results for `C/C(=C\c1ccccc1)CN1CCN(c2nccn(CC(=O)N(C)C)c2=O)CC1` [8-2] were, in that order, over 10000 nM, 1580 nM and 158 nM.
The like results for `C/C(=C\c1ccccc1)CN1CCC(Nc2nccn(CC(=O)N3CCN(Cc4ccccc4)CC3)c2=O)CC1` [2-30] were, in that order, 794 nM, 79.4 nM and 2 nM.
The like results for `C/C(=C\c1ccccc1)CN1CCC(Nc2nccn(Cc3cccc(F)c3)c2=O)CC1` [5-12] were, in that order, 501 nM, 100 nM and 25.1 nM.
For `COC(=O)CC(=O)NCc1ccc(Cn2ccnc(NC3CCN(C/C(C)=C/c4ccccc4)CC3)c2=O)cc1` [1-100], the IC50 on 5HT-Transporter was 1000 nM; on hα2A receptor it was 126 nM; on hα2C receptor, 25.1 nM.
The like results for `C/C(=C\c1ccccc1)CN1CCC(Nc2nccn(Cc3cccc(NCCN(C)C)c3)c2=O)CC1` [1-103] were, in that order, 200 nM, 25.1 nM and 3.16 nM.
The like results for `C/C(=C\c1ccccc1)CN1CCC(Nc2nccn(Cc3ccc(CNC(=O)NC4CCCCC4)cc3)c2=O)CC1` [1-118] were, in that order, 501 nM, 398 nM and 79.4 nM.
The like results for `CCOC(=O)N1CCN(C(=O)Cn2ccnc(NC3CCN(C/C(C)=C/c4ccccc4)CC3)c2=O)CC1` [2-35] were, in that order, 2510 nM, 158 nM and 31.6 nM.
Consider `CN(C)C(=O)Cn1ccnc(NC2CCN(C/C=C/c3ccccc3)CC2)c1=O` [16-3], for which the IC50 was over 10000 nM at 5HT-Transporter, 2510 nM at hα2A receptor and 316 nM on hα2C receptor.
As to `C/C(=C\c1ccccc1)CN1CCC(Nc2nccn(CCCN(Cc3ccccc3)C(=O)Nc3ccccc3)c2=O)CC1` [1-123], the IC50 on 5HT-Transporter is 631 nM; on hα2A receptor it was 158 nM; on hα2C receptor it was 12.6 nM.
On to `C/C(=C\c1ccccc1)CN1CCC(Nc2nccn(CCCN3C(=O)c4ccccc4C3=O)c2=O)CC1` [2-50], for which the IC50 at 5HT-Transporter was 126 nM; on hα2A receptor it was 31.6 nM; at hα2C receptor it was 1 nM.
With `C/C(=C\c1ccccc1)CN1CCC(Nc2nccn(CCCN(Cc3ccccc3)C(=O)c3ccccc3)c2=O)CC1` [1-87], the IC50 is 1580 nM on 5HT-Transporter, 200 nM on hα2A receptor and 12.6 nM on hα2C receptor.
The like results for `C/C(=C\c1ccccc1)CN1CCC(Nc2nccn(-c3ccc(C=O)cc3)c2=O)CC1` [5-6] were, in that order, 2000 nM, 39.8 nM and 6.31 nM.
`C/C(=C\c1ccccc1)CN1CCC(Nc2nccn(CC(=O)NCC3CCCO3)c2=O)CC1` (stereo not drawn) [1-144]: the figures for the IC50 at 5HT-Transporter, on hα2A receptor and on hα2C receptor were 3160 nM, 158 nM and 6.31 nM, respectively.
As for `C/C(=C\c1ccccc1)CN1CCC(Nc2nccn(-c3cccc(N4CCOCC4)c3)c2=O)CC1` [2-42], the IC50 on 5HT-Transporter is 794 nM; at hα2A receptor it was 7.94 nM; on hα2C receptor it was 3.16 nM.
Turning to `CCCNC(=O)Cn1ccnc(NC2CCN(C/C(C)=C/c3ccccc3)CC2)c1=O` [1-10], the figures for the IC50 at 5HT-Transporter, on hα2A receptor and at hα2C receptor were 2000 nM, 126 nM and 10 nM, respectively.
For `C/C(=C\c1ccccc1)CN1CCC(Nc2nccn(Cc3ccc(CNS(C)(=O)=O)cc3)c2=O)CC1` [1-156], the IC50 was 1260 nM at 5HT-Transporter, 158 nM at hα2A receptor and 31.6 nM on hα2C receptor.
For the compound `COCCCNC(=O)Cn1ccnc(NC2CCN(C/C(C)=C/c3ccccc3)CC2)c1=O` [1-23], the IC50 on 5HT-Transporter is 2510 nM; at hα2A receptor, 200 nM; at hα2C receptor it was 6.31 nM.
The like results for `C/C(=C\c1ccccc1)CN1CCC(Nc2nccn(Cc3ccc(CNC(=O)c4ccccc4)cc3)c2=O)CC1` [1-73] were, in that order, 316 nM, 158 nM and 31.6 nM.
As for `COC(=O)CCCCn1ccnc(NC2CCN(C/C(C)=C/c3ccccc3)CC2)c1=O` [3-8], the figures for the IC50 at 5HT-Transporter, on hα2A receptor and at hα2C receptor were 794 nM, 79.4 nM and 15.8 nM, respectively.
The like results for `C/C(=C\c1ccccc1)CN1CCC(Nc2nccn(-c3ccc(C(=O)N4CCC(N(C)C)C4)cc3)c2=O)CC1` (stereo not drawn) [2-2] were, in that order, 398 nM, 63.1 nM and 5.01 nM.
As to `C/C(=C\c1ccccc1)CN1CCC(Nc2nccn(CCN3C(=O)c4ccccc4C3=O)c2=O)CC1` [2-49], the IC50 at 5HT-Transporter is 1000 nM; at hα2A receptor, 158 nM; on hα2C receptor it was 15.8 nM.

The record behind these values is patent US20090111801A1, “SUBSTITUTED PYRAZINONE DERIVATIVES FOR USE AS A MEDICINE” (Janssen Pharmaceutica N.V., priority 2006, published 2009).
